Experimental data reported in patent US7465729B2, “Methods of treatment of menopause and perimenopause using eszopiclone” (Sepracor Inc., priority 2004, dated 2008).

Legend:
conscious dogs = assay: Dose escalation safety study, cardiovascular and respiratory parameters; conditions: for cardiotoxicity, as evidenced by the electrocardiogram (ECG) / effect on blood pressure / effect on heart rate / Blood gases and blood chemistries (pH, pCO2, pO2, hematocrit, and lactate): acute intravenous, 3, 5 and 12 mg/kg; for Blood gases and blood chemistries (pH, pCO2, pO2, hematocrit, and lactate): all dose groups
Protocol: To establish the safety of eszopiclone, a dose escalation study was carried out. Cardiovascular and respiratory parameters were evaluated in conscious dogs following acute intravenous administration of (R)-, (S)- or racemic zopiclone at three doses (3, 5 and 12 mg/kg).

mice = assay: Antimuscarinic activity in vivo: oxotremorine induced salivation; conditions: doses up to 300 mg/kg, p.o.
Protocol: Eszopiclone was evaluated for antimuscarinic activity in vivo.

[1] = tested on: women with insomnia secondary to perimenopause or menopause; assay: Clinical study: Physician Global Assessment of perimenopausal or menopausal symptoms; assay type: in vivo; conditions: ITT; for Physician Global Assessment, Observed Value, Mean (SD): score 1 = Very much improved to 7 = Very much worse; for Physician Global Assessment, Observed Value, Least Squares Means (SE) [1]: ANOVA
Protocol: (§1) The study was aimed at observing efficacy of eszopiclone 3 mg compared to placebo in the treatment of insomnia secondary to perimenopause or menopause. The study was a multicenter, randomized, double-blind, placebo-controlled, parallel-group study. […] The primary method of analysis compared the post-randomization results between the two treatment groups.
(§2) Subjects were women with insomnia secondary to perimenopause or menopause. Subjects were perimenopausal or menopausal and had insomnia symptoms including ≧45 minutes sleep latency (SL) and total sleep time (TST) ≦6 hours. Perimenopausal/menopausal symptoms predated the onset of sleep disturbance symptoms. The patient population was predominately Caucasian (77.2%). The mean age was 49, with a range of 40-60.
(§3) A total of 410 subjects were randomized. Among them, 201 received 3 mg of eszopiclone (ESZ) nightly (at bedtime) for four weeks and 209 received matching placebo (PBO).
A Physician Global Assessment was administered at Week 4, the end of the double-blind treatment period.

[2] = tested on: women with insomnia secondary to perimenopause or menopause; assay: Clinical study: discontinuation rates; assay type: in vivo; conditions: 3 mg nightly for four weeks
Protocol: as §1, §2, §3

muscarinic receptors = assay: In vitro affinity for muscarinic receptors; assay type: binding
[3] = tested on: women with insomnia secondary to perimenopause or menopause; assay: Clinical study: number of nocturnal awakenings due to hot flashes; assay type: in vivo; conditions: for Number of Nocturnal Awakenings due to Hot Flashes, Observed Value, Mean (SD) / Number of Nocturnal Awakenings due to Hot Flashes, Observed Value, 25th Percentile / Number of Nocturnal Awakenings due to Hot Flashes, Observed Value, 75th Percentile / Number of Nocturnal Awakenings due to Hot Flashes, Observed Value, Maximum / Number of Nocturnal Awakenings due to Hot Flashes, Observed Value, Median / Number of Nocturnal Awakenings due to Hot Flashes, Observed Value, Minimum / Number of Nocturnal Awakenings due to Hot Flashes, Change from Baseline, 25th Percentile / Number of Nocturnal Awakenings due to Hot Flashes, Change from Baseline, 75th Percentile / Number of Nocturnal Awakenings due to Hot Flashes, Change from Baseline, Maximum / Number of Nocturnal Awakenings due to Hot Flashes, Change from Baseline, Mean (SD) / Number of Nocturnal Awakenings due to Hot Flashes, Change from Baseline, Median / Number of Nocturnal Awakenings due to Hot Flashes, Change from Baseline, Minimum / Number of Nocturnal Awakenings due to Hot Flashes, Change from Baseline, Least Squares Means (SE) [3] / Number of Nocturnal Awakenings due to Hot Flashes, Observed Value, Least Squares Means (SE) [2]: ITT; for Number of Nocturnal Awakenings due to Hot Flashes, Change from Baseline, Least Squares Means (SE) [3]: ANCOVA; for Number of Nocturnal Awakenings due to Hot Flashes, Observed Value, Least Squares Means (SE) [2]: ANOVA
Protocol: as §1, §2, §3

## CN1CCN(C(=O)O[C@@H]2c3nccnc3C(=O)N2c2ccc(Cl)cn2)CC1 [(R)-zopiclone]
Conscious dogs
  cardiotoxicity, as evidenced by the electrocardiogram (ECG): No evidence of cardiotoxicity
  effect on blood pressure: no effect
  effect on heart rate: no effect
  Blood gases and blood chemistries (pH, pCO2, pO2, hematocrit, and lactate): remained unaffected
Conscious dogs; intravenous, 12 mg/kg
  hemodynamic effect: did not produce a consistent hemodynamic effect
mice
  antagonism of oxotremorine induced salivation: neither (R)-, (S)-, nor racemic zopiclone significantly antagonized oxotremorine induced salivation

## CN1CCN(C(=O)O[C@H]2c3nccnc3C(=O)N2c2ccc(Cl)cn2)CC1 [Eszopiclone, (+)6-(5-chloropyrid-2-yl)-5-(4-methylpiperazin-1-yl)carbonyloxy-7-oxo-6,7-dihydro-5H-pyrrolo[3-4-b]pyrazine]
[1]; Visit 3 (Baseline), 3 mg group
  Physician Global Assessment, Observed Value, 25th Percentile: 4.0
  Physician Global Assessment, Observed Value, 75th Percentile: 4.0
  Physician Global Assessment, Observed Value, Maximum: 7.0
  Physician Global Assessment, Observed Value, Median: 4.0
  Physician Global Assessment, Observed Value, Minimum: 0.0
[1]; Visit 3 (Baseline), 3 mg group, 0 = Not assessed
  Physician Global Assessment, Observed Value, Mean (SD): 3.7 (1.0)
[1]; Visit 5 (Week 4), 3 mg nightly
  Physician Global Assessment, Change from Baseline, 25th Percentile: −2.0
  Physician Global Assessment, Change from Baseline, 75th Percentile: 0.0
  Physician Global Assessment, Change from Baseline, Maximum: 6.0
  Physician Global Assessment, Change from Baseline, Mean (SD): −1.0 (1.4)
  Physician Global Assessment, Change from Baseline, Median: −1.0
  Physician Global Assessment, Change from Baseline, Minimum: −4.0
  Physician Global Assessment, Observed Value, 25th Percentile: 2.0
  Physician Global Assessment, Observed Value, 75th Percentile: 4.0
  Physician Global Assessment, Observed Value, Maximum: 6.0
  Physician Global Assessment, Observed Value, Median: 2.0
  Physician Global Assessment, Observed Value, Minimum: 1.0
  Physician Global Assessment, Observed Value, Least Squares Means (SE) [1]: 2.7 (0.1)
  Physician Global Assessment, Observed Value, Mean (SD): 2.6 (1.2)
[1]; Visit 5 (Week 4), 3 mg nightly, ANCOVA
  Physician Global Assessment, Change from Baseline, Least Squares Means (SE) [2]: −0.9 (0.1)
[1]; Visit 5 (Week 4), 3 mg nightly, listed as ESZ
  Physician Global Assessment, Observed Value, Least Squares Means (SE) [1]: 2.7
[2]
  discontinuation rate: 11.9%
Conscious dogs
  cardiotoxicity, as evidenced by the electrocardiogram (ECG): No evidence of cardiotoxicity
  effect on blood pressure: dose dependent, transient decreases in blood pressure
  effect on heart rate: compensatory increase in heart rate
  Blood gases and blood chemistries (pH, pCO2, pO2, hematocrit, and lactate): remained unaffected
Muscarinic receptors
  in vitro affinity for muscarinic receptors: lack of in vitro affinity
[3]; Baseline (average of all pre-DB observations), 3 mg group
  Number of Nocturnal Awakenings due to Hot Flashes, Observed Value, Mean (SD): 1.3 (1.2)
[3]; Baseline, 3 mg group
  Number of Nocturnal Awakenings due to Hot Flashes, Observed Value, 25th Percentile: 0.3
  Number of Nocturnal Awakenings due to Hot Flashes, Observed Value, 75th Percentile: 2.0
  Number of Nocturnal Awakenings due to Hot Flashes, Observed Value, Maximum: 6.0
  Number of Nocturnal Awakenings due to Hot Flashes, Observed Value, Median: 1.0
  Number of Nocturnal Awakenings due to Hot Flashes, Observed Value, Minimum: 0.0
[3]; DB Average, 3 mg nightly
  Number of Nocturnal Awakenings due to Hot Flashes, Change from Baseline, 25th Percentile: −1.1
  Number of Nocturnal Awakenings due to Hot Flashes, Change from Baseline, 75th Percentile: 0.0
  Number of Nocturnal Awakenings due to Hot Flashes, Change from Baseline, Maximum: 1.5
  Number of Nocturnal Awakenings due to Hot Flashes, Change from Baseline, Mean (SD): −0.7 (1.0)
  Number of Nocturnal Awakenings due to Hot Flashes, Change from Baseline, Median: −0.5
  Number of Nocturnal Awakenings due to Hot Flashes, Change from Baseline, Minimum: −6.0
  Number of Nocturnal Awakenings due to Hot Flashes, Observed Value, 25th Percentile: 0.0
  Number of Nocturnal Awakenings due to Hot Flashes, Observed Value, 75th Percentile: 0.9
  Number of Nocturnal Awakenings due to Hot Flashes, Observed Value, Maximum: 2.7
  Number of Nocturnal Awakenings due to Hot Flashes, Observed Value, Mean (SD): 0.5 (0.6)
  Number of Nocturnal Awakenings due to Hot Flashes, Observed Value, Median: 0.2
  Number of Nocturnal Awakenings due to Hot Flashes, Observed Value, Minimum: 0.0
  Number of Nocturnal Awakenings due to Hot Flashes, Change from Baseline, Least Squares Means (SE) [3]: −0.7 (0.1)
  Number of Nocturnal Awakenings due to Hot Flashes, Observed Value, Least Squares Means (SE) [2]: 0.5 (0.1)
[3]; Week 1, 3 mg nightly
  nocturnal awakenings due to hot flashes, LS means: 0.3 per night
  Number of Nocturnal Awakenings due to Hot Flashes, Change from Baseline, 25th Percentile: −1.2
  Number of Nocturnal Awakenings due to Hot Flashes, Change from Baseline, 75th Percentile: 0.0
  Number of Nocturnal Awakenings due to Hot Flashes, Change from Baseline, Maximum: 0.8
  Number of Nocturnal Awakenings due to Hot Flashes, Change from Baseline, Mean (SD): −0.7 (1.0)
  Number of Nocturnal Awakenings due to Hot Flashes, Change from Baseline, Median: −0.5
  Number of Nocturnal Awakenings due to Hot Flashes, Change from Baseline, Minimum: −6.0
  Number of Nocturnal Awakenings due to Hot Flashes, Observed Value, 25th Percentile: 0.0
  Number of Nocturnal Awakenings due to Hot Flashes, Observed Value, 75th Percentile: 1.0
  Number of Nocturnal Awakenings due to Hot Flashes, Observed Value, Maximum: 3.0
  Number of Nocturnal Awakenings due to Hot Flashes, Observed Value, Mean (SD): 0.5 (0.7)
  Number of Nocturnal Awakenings due to Hot Flashes, Observed Value, Median: 0.2
  Number of Nocturnal Awakenings due to Hot Flashes, Observed Value, Minimum: 0.0
  Number of Nocturnal Awakenings due to Hot Flashes, Change from Baseline, Least Squares Means (SE) [3]: −0.7 (0.1)
  Number of Nocturnal Awakenings due to Hot Flashes, Observed Value, Least Squares Means (SE) [2]: 0.5 (0.1)
[3]; Week 2, 3 mg nightly
  Number of Nocturnal Awakenings due to Hot Flashes, Change from Baseline, 25th Percentile: −1.0
  Number of Nocturnal Awakenings due to Hot Flashes, Change from Baseline, 75th Percentile: 0.0
  Number of Nocturnal Awakenings due to Hot Flashes, Change from Baseline, Maximum: 2.0
  Number of Nocturnal Awakenings due to Hot Flashes, Change from Baseline, Mean (SD): −0.7 (1.0)
  Number of Nocturnal Awakenings due to Hot Flashes, Change from Baseline, Median: −0.6
  Number of Nocturnal Awakenings due to Hot Flashes, Change from Baseline, Minimum: −6.0
  Number of Nocturnal Awakenings due to Hot Flashes, Observed Value, 25th Percentile: 0.0
  Number of Nocturnal Awakenings due to Hot Flashes, Observed Value, 75th Percentile: 1.0
  Number of Nocturnal Awakenings due to Hot Flashes, Observed Value, Maximum: 3.0
  Number of Nocturnal Awakenings due to Hot Flashes, Observed Value, Mean (SD): 0.5 (0.7)
  Number of Nocturnal Awakenings due to Hot Flashes, Observed Value, Median: 0.0
  Number of Nocturnal Awakenings due to Hot Flashes, Observed Value, Minimum: 0.0
  Number of Nocturnal Awakenings due to Hot Flashes, Change from Baseline, Least Squares Means (SE) [3]: −0.6 (0.1)
  Number of Nocturnal Awakenings due to Hot Flashes, Observed Value, Least Squares Means (SE) [2]: 0.5 (0.1)
[3]; Week 3, 3 mg nightly
  Number of Nocturnal Awakenings due to Hot Flashes, Change from Baseline, 25th Percentile: −1.0
  Number of Nocturnal Awakenings due to Hot Flashes, Change from Baseline, 75th Percentile: 0.0
  Number of Nocturnal Awakenings due to Hot Flashes, Change from Baseline, Maximum: 1.5
  Number of Nocturnal Awakenings due to Hot Flashes, Change from Baseline, Mean (SD): −0.7 (1.1)
  Number of Nocturnal Awakenings due to Hot Flashes, Change from Baseline, Median: −0.4
  Number of Nocturnal Awakenings due to Hot Flashes, Change from Baseline, Minimum: −6.0
  Number of Nocturnal Awakenings due to Hot Flashes, Observed Value, 25th Percentile: 0.0
  Number of Nocturnal Awakenings due to Hot Flashes, Observed Value, 75th Percentile: 1.0
  Number of Nocturnal Awakenings due to Hot Flashes, Observed Value, Maximum: 3.0
  Number of Nocturnal Awakenings due to Hot Flashes, Observed Value, Mean (SD): 0.5 (0.7)
  Number of Nocturnal Awakenings due to Hot Flashes, Observed Value, Median: 0.0
  Number of Nocturnal Awakenings due to Hot Flashes, Observed Value, Minimum: 0.0
  Number of Nocturnal Awakenings due to Hot Flashes, Change from Baseline, Least Squares Means (SE) [3]: −0.6 (0.1)
  Number of Nocturnal Awakenings due to Hot Flashes, Observed Value, Least Squares Means (SE) [2]: 0.5 (0.1)
[3]; Week 4, 3 mg nightly
  Number of Nocturnal Awakenings due to Hot Flashes, Change from Baseline, 25th Percentile: −1.3
  Number of Nocturnal Awakenings due to Hot Flashes, Change from Baseline, 75th Percentile: 0.0
  Number of Nocturnal Awakenings due to Hot Flashes, Change from Baseline, Maximum: 2.1
  Number of Nocturnal Awakenings due to Hot Flashes, Change from Baseline, Mean (SD): −0.8 (1.2)
  Number of Nocturnal Awakenings due to Hot Flashes, Change from Baseline, Median: −0.7
  Number of Nocturnal Awakenings due to Hot Flashes, Change from Baseline, Minimum: −6.0
  Number of Nocturnal Awakenings due to Hot Flashes, Observed Value, 25th Percentile: 0.0
  Number of Nocturnal Awakenings due to Hot Flashes, Observed Value, 75th Percentile: 1.0
  Number of Nocturnal Awakenings due to Hot Flashes, Observed Value, Maximum: 3.6
  Number of Nocturnal Awakenings due to Hot Flashes, Observed Value, Mean (SD): 0.4 (0.7)
  Number of Nocturnal Awakenings due to Hot Flashes, Observed Value, Median: 0.0
  Number of Nocturnal Awakenings due to Hot Flashes, Observed Value, Minimum: 0.0
  Number of Nocturnal Awakenings due to Hot Flashes, Change from Baseline, Least Squares Means (SE) [3]: −0.7 (0.1)
  Number of Nocturnal Awakenings due to Hot Flashes, Observed Value, Least Squares Means (SE) [2]: 0.4 (0.1)
mice
  antagonism of oxotremorine induced salivation: neither (R)-, (S)-, nor racemic zopiclone significantly antagonized oxotremorine induced salivation
